Results: patent US7410980B2, “Crystals of taxane derivative and process for their production” (Daiichi Pharmaceutical Co., Ltd., priority 2001, dated 2008)

Experiment: moisture absorption behavior (microbalance, automatic moisture adsorption apparatus)
Type: physicochemical
Experimental: Moisture absorption behaviors of the crystals of the present invention (β crystals) and an amorphous substance were measured under relative humidity of from 30 to 90%. Each sample of about 20 mg was used and the relative humidity was changed from 30% with 10% pitch by using a microbalance (automatic moisture adsorption apparatus). The measurement temperature was 25° C. An amount of the change was determined when the sample gave the change of 0.03% or less for 30 minutes (maximum retention time: 180 minutes).

Compound: CC(=O)O[C@@]12CO[C@@H]1CC[C@@]1(C)[C@@H]3O[C@H](CN(C)C)O[C@@H]3C3=C(C)[C@@H](OC(=O)[C@H](O)[C@@H](NC(=O)OC(C)(C)C)c4ncccc4F)C[C@@](O)([C@@H](OC(=O)c4ccccc4)[C@@H]12)C3(C)C [amorphous substance, (1S,2S,3R,4S,5R,8R,9S,10R,13S)-4-acetoxy-2-benzoyloxy-9,10-[(1S)-2-(dimethylamino)ethylidenedioxy]-5,20-epoxy-1-hydroxytax-11-en-13-yl (2R,3S)-3-(tert-butoxycarbonylamino)-3-(3-fluoro-2-pyridyl)-2-hydroxypropionate]
- additional moisture absorbed as compared to the crystals of the present invention (β crystals) (under high humidity, relative humidity 30 to 90%, 25° C., about 20 mg sample): about 1%

Compound: CC(=O)O[C@@]12CO[C@@H]1CC[C@@]1(C)[C@@H]3O[C@H](CN(C)C)O[C@@H]3C3=C(C)[C@@H](OC(=O)[C@H](O)[C@@H](NC(=O)OC(C)(C)C)c4ncccc4F)C[C@@](O)([C@@H](OC(=O)c4ccccc4)[C@@H]12)C3(C)C [β crystals, (1S,2S,3R,4S,5R,8R,9S,10R,13S)-4-acetoxy-2-benzoyloxy-9,10-[(1S)-2-(dimethylamino)ethylidenedioxy]-5,20-epoxy-1-hydroxytax-11-en-13-yl (2R,3S)-3-(tert-butoxycarbonylamino)-3-(3-fluoro-2-pyridyl)-2-hydroxypropionate]
- hygroscopicity (compared with amorphous substance, as shown in the examples): lower than that of an amorphous substance
